The series in a line: Steroid administration with ADC, toxicity symptoms reported by subjects. The format is in vivo. Conditions: steroid given with ADC dosage regimes.

On to `C[C@@H]1C[C@H]2[C@@H]3CCC4=CC(=O)C=C[C@]4(C)[C@@]3(F)[C@@H](O)C[C@]2(C)[C@@]1(O)C(=O)CO` [dexamethasone, (8S,9R,10S,11S,13S,14S,16R,17R)-9-Fluoro-11,17-dihydroxy-17-(2-hydroxyacetyl)-10,13,16-trimethyl-6,7,8,9,10,11,12,13,14,15,16,17-dodecahydro-3H-cyclopenta[a]phenanthren-3-one], for which the “frequency and/or severity of toxicity symptom reported by subjects” value is given as “reduced the frequency and/or severity of toxicity symptom”.
